US20190254274A1, “COMPOSITE MATERIALS DESIGNED TO POSSES BIO-ACTIVE PROPERTIES AND SYNTHESIS AND USES THEREO” (ADA Foundation, priority 2018, published 2019)

Assays:
Type in all cases: cell-based
[1] = tested on: TNF-alpha expression in primary human CD14+ cells; test: TNF-alpha ELISA in LPS-stimulated human CD14+ monocyte-derived macrophages; settings: 2 hr LPS+4 hr Tx
Experimental: All chemicals, unless otherwise indicated, were procured from Sigma-Aldrich and used without additional purification. Stock solutions of Docosahexaenoic acid (DHA) in Dimethyl Sulfoxide (DMSO), Aspirin in physiologically buffered saline (PBS, pH 7.4) were prepared prior to their use. E. Coli derived Lipopolysaccharide (LPS) was reconstituted at 1 ug/mL, sterile filtered, and stored at −80 C until needed. RAW 264.7 murine macrophage cell line was obtained from ATCC (Manassas, Va.). Cells were thawed at passage 5 or 6 and were maintained in DMEM complete growth media supplemented with 10% FBS (Hyclone, GE Healthcare)+1% Penn/strep (Gibco) until needed. Peripheral blood derived primary human CD14+monocytes (BioreclamationlVT, Albany, N.Y.) were also maintained in DMEM growth media until needed. […]
(§1) Following each treatment, sample media was tested for inflammatory tumor necrosis factor alpha (TNF-alpha) expression using a commercially available sandwich ELISA kits designed for either mouse or human cells (R&D Systems). Samples showing reduction in TNF-alpha were further analyzed using the Resolvin D1 and Resolvin D2 ELISA kits (Cayman Chemical). Mean and standard deviations were calculated for each analyte. ELISA results were normalized to the total protein readings of each well. […]

[2] = tested on: Resolvin D1 (RvD1) expression and release; test: Resolvin D1 ELISA, LPS-challenged human macrophages
Experimental: (§2) All chemicals, unless otherwise indicated, were procured from Sigma-Aldrich and used without additional purification. Stock solutions of Docosahexaenoic acid (DHA) in Dimethyl Sulfoxide (DMSO), Aspirin in physiologically buffered saline (PBS, pH 7.4) were prepared prior to their use. E. Coli derived Lipopolysaccharide (LPS) was reconstituted at 1 ug/mL, sterile filtered, and stored at −80 C until needed. RAW 264.7 murine macrophage cell line was obtained from ATCC (Manassas, Va.). Cells were thawed at passage 5 or 6 and were maintained in DMEM complete growth media supplemented with 10% FBS (Hyclone, GE Healthcare)+1% Penn/strep (Gibco) until needed. Peripheral blood derived primary human CD14+monocytes (BioreclamationlVT, Albany, N.Y.) were also maintained in DMEM growth media until needed. Prior to experimentation, monocytes were differentiated to macrophages by using macrophage colony stimulating factor (M-CSF) at 25 ng/mL in media for up to three days or until cells had reached near confluence (˜95%). RAW 264.7 cells were seeded at roughly 5,000 cells per well in a 96-well plate and allowed to grow to near confluence. At confluence, cells were pre-treated with LPS for 2 hours. At the 2-hour mark, cells were treated with DMEM media containing DMSO (1% w/w, negative control), Aspirin (positive control, 10 nmol/L), DHA (100 umol/L) or a combination of the two. Bio-active composite material Hydroxyapatite-Docosahexaenoic acid (HA-DHA) was dispersed in DMSO and delivered at similar concentrations as DHA alone (described above). Cells were harvested at 2, 4, and 6 hours after LPS stimulation. Human CD14+ cells were seeded at roughly 3.3*10^4 cells per well in a 96-well plate and treated with MCSF until full confluence. Cells were treated with LPS for 2 hours, at which time they were exposed to the same treatments described above for RAW 264.7 cells. Cells were harvested at 4 and 6 hours. […]
as §1
(§3) To investigate further the anti-inflammatory effects the inventors observed in both human and murine macrophages challenged with pathogenic LPS and to determine if the bio-active composite material HA-DHA on its' own and in combination with Aspirin induces formation of pro-resolution mediators, the inventors measured Resolvin production secreted from challenged human macrophages.

[3] = tested on: Resolvin D2 (RvD2) expression and release; test: Resolvin D2 ELISA, LPS-challenged human macrophages
Experimental: as §2, §1, §3

[4] = earlier time point (FIG. 19, Table 2)
[5] = 2 hours LPS + 6 hours treatment (Table 5)

Compound	TNF-alpha expression (Mean) [1] [pg/µg]	Resolvin D1 (RvD1) expression and release (Mean) ([2]; 2-hour+6-hour Tx (Table 3))	Resolvin D1 (RvD1) expression and release (Mean) [2, 4]	Resolvin D2 (RvD2) expression (Mean) ([3]; 2 hour LPS+4 hr Tx (Table 4))	Resolvin D2 (RvD2) expression (Mean) [3, 5]
CC/C=C\C/C=C\C/C=C\C/C=C\C/C=C\C/C=C\CCC(=O)O [DHA, 4Z, 7Z, 10Z, 13Z, 16Z, 19Z)-docosa-4,7,10,13,16,19-hexaenoic acid]	10.5	678	771.1	194.2	161.9
CC(=O)Oc1ccccc1C(=O)O [Aspirin]	9.1	16.96	18.87	25.02	73.25
